Active and inactive are the calls of the source.
Key:
Nonstructural protein 1 = Nonstructural protein 1 (Influenza A virus, UniProt Q194T2); assay type: functional, Influenza A virus (A/California/07/2009(H1N1))
Caspase-3 = target: T1, Caspase-3 (Homo sapiens, UniProt P42574); assay type: functional;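 note: Dose-response selectivity test against caspase-3 for candidate inhibitors of sentrin-specific proteases (SENPs)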
T1 sequence (P42574 whole entry): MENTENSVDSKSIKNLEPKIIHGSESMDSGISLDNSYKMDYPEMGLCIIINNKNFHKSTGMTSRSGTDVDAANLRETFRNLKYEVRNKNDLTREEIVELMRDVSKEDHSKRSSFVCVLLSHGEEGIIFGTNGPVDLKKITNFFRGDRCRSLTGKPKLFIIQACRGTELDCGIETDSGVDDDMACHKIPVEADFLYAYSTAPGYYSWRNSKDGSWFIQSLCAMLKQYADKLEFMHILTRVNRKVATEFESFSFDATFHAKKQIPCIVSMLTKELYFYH

[1] = target: T2, Sentrin-specific protease 7 (Homo sapiens, UniProt Q9BQF6); assay type: functional;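 note: Luminescence-based dose-response confirmation of ultra-high-throughput screening hits, measuring inhibition of SENP7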
T2 sequence (Q9BQF6 whole entry): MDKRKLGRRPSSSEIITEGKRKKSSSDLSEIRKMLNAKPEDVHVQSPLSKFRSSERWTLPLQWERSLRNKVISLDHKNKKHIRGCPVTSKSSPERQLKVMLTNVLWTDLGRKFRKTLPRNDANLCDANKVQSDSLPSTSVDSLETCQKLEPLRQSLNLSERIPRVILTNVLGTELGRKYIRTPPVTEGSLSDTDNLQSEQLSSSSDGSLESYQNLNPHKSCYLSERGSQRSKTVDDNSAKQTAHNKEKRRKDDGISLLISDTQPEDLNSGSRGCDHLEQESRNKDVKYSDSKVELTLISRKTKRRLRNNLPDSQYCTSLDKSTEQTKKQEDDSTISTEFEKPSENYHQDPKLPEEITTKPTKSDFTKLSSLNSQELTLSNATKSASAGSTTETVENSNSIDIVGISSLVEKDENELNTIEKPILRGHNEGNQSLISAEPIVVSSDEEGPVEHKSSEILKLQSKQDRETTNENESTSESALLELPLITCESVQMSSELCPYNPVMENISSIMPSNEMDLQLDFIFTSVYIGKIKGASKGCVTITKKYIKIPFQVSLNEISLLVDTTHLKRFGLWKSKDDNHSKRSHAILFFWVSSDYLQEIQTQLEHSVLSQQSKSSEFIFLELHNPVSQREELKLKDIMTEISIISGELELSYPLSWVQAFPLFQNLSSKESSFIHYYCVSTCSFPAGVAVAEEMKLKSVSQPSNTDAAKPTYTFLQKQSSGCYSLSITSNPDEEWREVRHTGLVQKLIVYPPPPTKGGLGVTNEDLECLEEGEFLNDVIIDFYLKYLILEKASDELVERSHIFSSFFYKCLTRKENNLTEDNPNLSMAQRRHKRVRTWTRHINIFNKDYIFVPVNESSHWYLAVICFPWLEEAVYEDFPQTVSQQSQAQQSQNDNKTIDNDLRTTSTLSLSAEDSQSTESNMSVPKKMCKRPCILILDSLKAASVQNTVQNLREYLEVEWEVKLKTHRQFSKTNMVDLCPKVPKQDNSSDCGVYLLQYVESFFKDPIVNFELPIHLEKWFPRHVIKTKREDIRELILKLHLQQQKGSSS

[2] = target: T3, Sentrin-specific protease 6 (Homo sapiens, UniProt Q9GZR1); assay type: functional;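 note: Luminescence-based dose-response confirmatory assay of SENP6 inhibition, following up an ultra-high-throughput screen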
T3 sequence (Q9GZR1 whole entry): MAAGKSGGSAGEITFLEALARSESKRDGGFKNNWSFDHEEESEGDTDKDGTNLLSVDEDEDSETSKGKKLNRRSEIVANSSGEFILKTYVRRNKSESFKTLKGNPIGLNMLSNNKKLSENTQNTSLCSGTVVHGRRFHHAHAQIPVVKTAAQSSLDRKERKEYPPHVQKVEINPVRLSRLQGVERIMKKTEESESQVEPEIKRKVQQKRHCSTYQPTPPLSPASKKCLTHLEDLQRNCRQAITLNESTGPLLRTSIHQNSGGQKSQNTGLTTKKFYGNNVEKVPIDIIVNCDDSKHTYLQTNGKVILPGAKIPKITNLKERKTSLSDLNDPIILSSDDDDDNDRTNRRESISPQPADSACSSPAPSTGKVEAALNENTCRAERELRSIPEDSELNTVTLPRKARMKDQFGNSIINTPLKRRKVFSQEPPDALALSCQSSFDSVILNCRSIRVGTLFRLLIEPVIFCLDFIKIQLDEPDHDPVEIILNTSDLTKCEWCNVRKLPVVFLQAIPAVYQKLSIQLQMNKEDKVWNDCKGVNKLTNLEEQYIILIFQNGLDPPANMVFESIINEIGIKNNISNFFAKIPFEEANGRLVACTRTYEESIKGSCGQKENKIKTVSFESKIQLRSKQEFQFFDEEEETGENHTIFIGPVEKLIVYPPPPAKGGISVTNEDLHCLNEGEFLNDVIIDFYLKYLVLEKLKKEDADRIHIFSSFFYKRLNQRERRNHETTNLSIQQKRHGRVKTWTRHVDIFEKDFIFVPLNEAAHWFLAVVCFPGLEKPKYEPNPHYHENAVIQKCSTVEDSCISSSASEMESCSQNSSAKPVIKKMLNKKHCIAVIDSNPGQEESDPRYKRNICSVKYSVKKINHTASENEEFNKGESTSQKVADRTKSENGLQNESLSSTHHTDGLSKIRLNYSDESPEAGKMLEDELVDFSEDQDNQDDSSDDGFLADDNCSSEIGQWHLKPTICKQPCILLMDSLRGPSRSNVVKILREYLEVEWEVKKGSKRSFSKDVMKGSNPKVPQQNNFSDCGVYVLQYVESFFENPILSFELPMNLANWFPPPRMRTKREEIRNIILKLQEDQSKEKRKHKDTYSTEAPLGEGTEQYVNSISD

[3] = target: T4, Sentrin-specific protease 8 (Homo sapiens, UniProt Q96LD8); assay type: functional;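 note: luminescence read-out of SENP8 inhibition, dose-response confirmation following an ultra-high-throughput screen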
T4 sequence (Q96LD8 whole entry): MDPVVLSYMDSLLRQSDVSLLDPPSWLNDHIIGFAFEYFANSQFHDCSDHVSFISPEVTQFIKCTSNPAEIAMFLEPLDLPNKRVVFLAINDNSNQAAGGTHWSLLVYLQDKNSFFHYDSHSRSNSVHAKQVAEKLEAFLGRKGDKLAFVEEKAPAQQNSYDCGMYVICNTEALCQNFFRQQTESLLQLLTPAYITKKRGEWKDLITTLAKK

[4] = luciferase reporter signal suppression in cells – H4 neuroglioma cells, luminescence, dose response (AID 1990); assay type: functional, cell-based
[5] = Luminescence Cell-Based Dose Response HTS to Identify Inhibitors of 5'UTR Stem-Loop Driven Prion Protein mRNA Translation in H4 Neuroglioblastoma Cells. [Related pubchem assays: 1827 (Project Summary), 1813 (Primary HTS)]; assay type: functional
[6] = alpha-synuclein stem-loop luciferase translation blockers – H4 neuroglioma cells, luminescence, confirmation (AID 1988); assay type: functional, cell-based
[7] = HEK-293T cell viability reduction – luminescence, B-cell screen hits, cytotoxicity control for BCR NF-kB inhibitor project, dose response (AID 489021); assay type: functional, cell-based;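 note: HEK-293T cells carrying an NF-kB luciferase reporter; cells exposed to compound for about 14 hours before viability readout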
H9c2 = test: cells; assay type: functional, cell-based; settings: Rattus norvegicus, H9c2, Myocardium;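 note: confirmatory concentration-response retest of ultra-high-throughput screening hits for modulation of myocardial damage; cell death induced by hydrogen peroxide oxidative stress; compound pretreatment for 60 min then peroxide exposure for 2 h; potency is for protecting the cells against peroxide damage rather than for killing them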
Protein skinhead-1 = target: T5, Protein skinhead-1 (Caenorhabditis elegans, UniProt P34707); assay type: functional
T5 sequence (P34707 whole entry): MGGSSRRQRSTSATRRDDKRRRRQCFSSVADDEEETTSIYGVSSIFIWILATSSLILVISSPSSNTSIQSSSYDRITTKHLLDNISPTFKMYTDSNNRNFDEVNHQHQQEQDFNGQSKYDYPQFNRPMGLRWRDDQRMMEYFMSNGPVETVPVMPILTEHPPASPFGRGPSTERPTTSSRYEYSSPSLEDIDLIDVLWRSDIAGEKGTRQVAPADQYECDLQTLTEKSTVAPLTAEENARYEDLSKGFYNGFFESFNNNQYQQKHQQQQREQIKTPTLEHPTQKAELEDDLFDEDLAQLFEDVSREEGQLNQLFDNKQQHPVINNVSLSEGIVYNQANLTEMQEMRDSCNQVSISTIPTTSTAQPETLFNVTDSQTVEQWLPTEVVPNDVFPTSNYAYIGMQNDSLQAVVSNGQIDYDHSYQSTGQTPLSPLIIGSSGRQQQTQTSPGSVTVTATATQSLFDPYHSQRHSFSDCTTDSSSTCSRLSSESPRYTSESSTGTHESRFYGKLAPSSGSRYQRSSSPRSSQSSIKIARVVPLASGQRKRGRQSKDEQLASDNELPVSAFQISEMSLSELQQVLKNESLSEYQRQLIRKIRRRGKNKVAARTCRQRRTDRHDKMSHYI

[8] = target: T6, Corticotropin-releasing factor receptor 2/Corticotropin-releasing factor-binding protein (Homo sapiens, UniProt P24387+Q13324); test: Dose Response confirmation of uHTS hits for small molecule antagonists of the CRF-binding protein and CRF-R2 receptor complex.; assay type: functional; settings: read-out: IC50_Mean
T6 sequence (Q13324 whole entry): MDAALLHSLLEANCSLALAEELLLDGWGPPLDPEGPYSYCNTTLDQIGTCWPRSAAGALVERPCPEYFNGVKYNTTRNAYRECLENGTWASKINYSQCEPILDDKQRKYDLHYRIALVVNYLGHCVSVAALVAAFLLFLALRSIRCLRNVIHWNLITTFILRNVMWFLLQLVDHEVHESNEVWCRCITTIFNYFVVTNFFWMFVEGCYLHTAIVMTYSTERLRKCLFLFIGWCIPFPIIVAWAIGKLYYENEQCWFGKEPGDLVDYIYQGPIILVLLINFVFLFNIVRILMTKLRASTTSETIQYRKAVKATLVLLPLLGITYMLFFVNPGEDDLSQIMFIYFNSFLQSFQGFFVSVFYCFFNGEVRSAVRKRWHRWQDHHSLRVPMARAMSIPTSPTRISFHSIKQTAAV
T6 sequence (P24387 whole entry): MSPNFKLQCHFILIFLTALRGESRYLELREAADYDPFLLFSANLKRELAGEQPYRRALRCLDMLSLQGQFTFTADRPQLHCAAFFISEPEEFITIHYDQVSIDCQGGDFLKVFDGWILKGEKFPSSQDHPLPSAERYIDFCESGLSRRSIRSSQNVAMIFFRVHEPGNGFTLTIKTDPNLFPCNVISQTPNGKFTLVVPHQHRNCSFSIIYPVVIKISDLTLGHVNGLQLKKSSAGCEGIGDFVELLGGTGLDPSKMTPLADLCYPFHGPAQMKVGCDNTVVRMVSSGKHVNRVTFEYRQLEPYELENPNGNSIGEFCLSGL

[9] = target: T6, Corticotropin-releasing factor receptor 2/Corticotropin-releasing factor-binding protein; test: activators of CRF receptor 2 with binding protein – uHTS hits, confirmation (AID 602473); assay type: functional; settings: read-out: EC50_Mean
[10] = system: Streptococcus sp. 'group A'; test: Streptococcus pyogenes SK(-)GAS viability under kanamycin – luminescence, BacTiterGlo, confirmation, counter-screen for streptokinase expression inhibitor project, dose response (AID 1900); assay type: functional, organism-based
[11] = Trypanosoma cruzi growth suppression in host cells – NIH3T3 host cells, beta-gal luminescence, confirmation (AID 2044); assay type: functional, cell-based;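 note: intracellular parasites grown in NIH/3T3 mouse fibroblasts as host cells; luminescent beta-galactosidase reporter signal from transgenic T. cruzi replicating inside host cells; inhibitors lower the luminescence signal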
[12] = microbe, parasite or virus in culture; assay type: functional; settings: Mycobacterium tuberculosis
[13] = NIH3T3 cell viability loss – ATP luminescence, mouse fibroblasts, counter-screen, dose response (AID 2010); assay type: functional, cell-based;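 note: cells exposed to compound for about 90 hours before reading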
Streptococcus = test: GAS UMAA2166 growth inhibition – luminescence, BacTiterGlo, counter-screen for streptokinase expression inhibitor project, dose response (AID 1915); assay type: functional, organism-based;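 note: potency for reduction of bacterial viability or growth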
INS1 = test: INS-1E survival protection against cytokine death – cell-based, luminescence, retest, dose response (AID 449756); assay type: functional; settings: Rattus norvegicus;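 note: cell death triggered by IL-1 beta plus TNF-alpha plus IFN-gamma mixture; protective hits raise ATP signal compared with cytokine alone wells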

Sequence of Nonstructural protein 1 (Q194T2 whole entry): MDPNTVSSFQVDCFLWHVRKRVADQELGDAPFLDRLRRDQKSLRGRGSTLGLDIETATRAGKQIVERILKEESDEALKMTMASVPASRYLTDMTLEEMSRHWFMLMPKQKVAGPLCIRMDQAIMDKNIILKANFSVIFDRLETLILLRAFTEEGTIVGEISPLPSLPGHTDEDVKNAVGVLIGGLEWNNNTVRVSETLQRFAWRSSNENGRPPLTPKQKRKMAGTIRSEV

For `O=C(O)c1cc2c3ccccc3nc-2c[nH]1`, the IC50 (Nonstructural protein 1) was 5.27 µM (active).
In the case of `COc1ccc(Nc2ccc(S(=O)(=O)N3CCCCC3)cc2[N+](=O)[O-])cc1OC`, the IC50 (Nonstructural protein 1) is reported as 28.8 µM (active).
For `COc1ccc2nc(Nc3nc4cc5c(cc4s3)OCCO5)sc2c1`, the IC50 (Caspase-3) was 37 µM (active), the IC50 [1] was 5.81 µM (active) and the IC50 [2] was 66.6 µM (active). The IC50 [3] was > 100 µM (inactive).
With `COc1cccc(N=Nc2ccc3ccccc3c2O)c1` the IC50 (Nonstructural protein 1) was 5.22 µM (active).
With `CN(C)c1ccc([C@@H]2[C@@H]([N+](=O)[O-])[C@H]3C=Cc4ccccc4N3[C@H]2C(=O)c2ccc(Cl)cc2)cc1` the IC50 (Nonstructural protein 1) was 26.5 µM (active).
For `Cc1ccc(NC(=O)C2CCC(CNc3c(N4CCC(C)CC4)c(=O)c3=O)CC2)cc1F` (stereo unspecified), the EC50 [4] was 11.5 µM (active), the EC50 [5] was > 120 µM (not active) and the EC50 [6] was > 120 µM (not active). The IC50 [7] was > 80 µM (inactive).
With `COC(=O)c1cc2c(-c3ccccc3)cc3ccccn3c-2c1C(=O)OC` the IC50 (Nonstructural protein 1) was 19.2 µM (active) and the IC50 (H9c2) was > 79 µM (inactive).
With `Cc1ccc2oc(-c3ccco3)nc2c1` the IC50 (Caspase-3) was 6.87 µM (active), the IC50 [1] was 5.87 µM (active) and the IC50 [2] was 21.3 µM (active). The IC50 [3] was > 100 µM (inactive).
With `Brc1ccc(-c2cnc(-c3cccs3)o2)cc1` the IC50 (Caspase-3) was 29.5 µM (active), the IC50 [1] was 5.42 µM (active) and the IC50 [2] was 15 µM (active). For the same molecule, the IC50 [3] was 27.6 µM (active) and the IC50 (Protein skinhead-1) was 19.7 µM (active).
With `O=C(c1cc2nc(-c3ccccc3)cc(-c3ccccc3)n2n1)N1CCN(C(=O)c2ccco2)CC1` the IC50 [7] was 72.3 µM (inactive), the IC50 (H9c2) was > 79 µM (inactive) and the IC50 [8] was > 47.1 µM (inactive). For the same molecule, the EC50 [9] was > 53 µM (inactive).
In the case of `COc1ccccc1Nc1ncccc1[N+](=O)[O-]`, the IC50 (Nonstructural protein 1) is reported as 29.9 µM (active).
In the case of `Cc1c(NC(=O)/C=C/c2cn(-c3ccccc3)nc2-c2ccccc2)c(=O)n(-c2ccccc2)n1C`, the IC50 [7] is reported as > 80 µM (inactive).
For `NC(=S)NN=Cc1nccc2ccccc12`, the IC50 (Nonstructural protein 1) was 2.03 µM (active).
In the case of `CC1CCN(CCCNC(=O)COc2cc(=O)n(C)c3ccccc23)CC1`, the IC50 [7] is reported as > 80 µM (inactive).
With `Cc1ccc(C2(c3ccc(C)cc3)CC2C(=O)Nc2ccc([N+](=O)[O-])cc2O)cc1` (stereo unspecified) the EC50 [4] was 10.1 µM (active), the EC50 [10] was 2.34 µM (active) and the EC50 [5] was 13.7 µM (active). For the same molecule, the EC50 [6] was 9.29 µM (active), the EC50 [11] was 3.31 µM (active) and the CC50 [12] was 3.29 µM (active). For the same molecule, the EC50 [13] was > 60 µM (not active), the EC50 (Streptococcus) was 4.17 µM (active) and the IC50 [7] was 33.8 µM (inactive). For the same molecule, the AC50 (INS1) was 3.61 µM (active).

From ChEMBL document CHEMBL1201862, “PubChem BioAssay data set” (2004)
